Measured values from US7982043B2, “Protein tyrosine kinase enzyme inhibitors” (Wyeth LLC, priority 2003, dated 2011).
Values after ≈ are worked out from the molar mass of the structure shown. Like-named read-outs stand apart in the source and are kept apart here.

Legend:
[1] = target: T1, recombinant cytoplasmic domain of HER-2 (Homo sapiens, UniProt P04626); assay: Cell-free autophosphorylation kinase assay (ELISA), HER-2; format: biochemical
T1 construct: In a cell-free autophosphorylation assay using the recombinant cytoplasmic domain of HER-2

3T3 cells = assay: Cell proliferation assay (SRB), 3T3; format: cell-based, mouse; conditions: Mus musculus
[2] = target: mouse fibroblast cell line transfected with the HER-2 oncogene (3T3/neu) (UniProt P04626, cells depend on it, species not given); assay: Cell proliferation assay (SRB), 3T3/neu; format: cell-based; conditions: EGFR −, Her-2 +++; 2 days, SRB; read-out: CELL IC50 3T3/NEU (converted)
A431 cells = assay: Cell proliferation assay (SRB), A431; format: cell-based; conditions: Homo sapiens, A-431, 48 h; EGFR +++, Her-2 +; 2 days, SRB; read-out: CELL IC50 A431
SK-Br-3 cells = assay: Cell proliferation assay (SRB), SK-Br-3; format: cell-based; conditions: Homo sapiens, SK-BR-3, 48 h; EGFR −, Her-2 +++; 2 days, SRB; read-out: CELL IC50 SKBr3
BT474 cells = assay: Cell proliferation assay (SRB), BT474; format: cell-based, human; conditions: Homo sapiens, BT-474, 144 h; EGFR +, Her-2 +++; 6 days, SRB; read-out: CELL IC50 BT474
MDA-MB-435 cells = assay: Cell proliferation assay (SRB), MDA-MB-435; format: cell-based; conditions: Homo sapiens, MDA-MB-435, 48 h; EGFR −, Her-2 −; 2 days, SRB; read-out: CELL IC50 MDA-MB-435
SW620 cells = assay: Cell proliferation assay (SRB), SW620; format: cell-based; conditions: Homo sapiens, SW-620, 48 h; EGFR −, Her-2 −; 2 days, SRB; read-out: CELL IC50 SW620
Her-2 = target: T2, Her-2 (Homo sapiens, UniProt P04626); assay: Her-2 receptor phosphorylation in BT474 cells (immunoblot); format: cell-based
T2 construct: For Her-2 and EGFR phosphorylation assays, cells (BT474 and A431, respectively) were incubated with various concentrations of compound; endogenous in cells; host or cells: BT474

[3] = tested on: xenografts of 3T3/neu cells; assay: 3T3/neu tumor xenograft in nude mice; format: in vivo, mouse; conditions: for tumor growth inhibition: day 21
BT474 xenografts = assay: BT474 tumor xenograft in nude mice; format: in vivo, mouse; conditions: day 21
xenografts of SUM-190 = assay: SUM-190 tumor xenograft in nude mice; format: in vivo, mouse; conditions: 40 mg/kg/day PO, day 28
xenografts of SK-OV-3 = assay: SK-OV-3 tumor xenograft in nude mice; format: in vivo, mouse; conditions: day 35
[4] = tested on: HER-2 overexpressing human xenograft models; assay: HER-2 overexpressing human xenograft models (overall); format: in vivo, mouse
EGFR [5] = target: T3, EGFR (Homo sapiens, UniProt P00533); assay: Cell-free autophosphorylation kinase assay (ELISA), EGFR; format: biochemical; set-up: Purified recombinant C-terminal fragment of each enzyme is incubated with ATP; conditions: read-out: Enzyme IC50 EGFR (converted)
Target sequence in this assay (P00533 669-1210 limits assumed): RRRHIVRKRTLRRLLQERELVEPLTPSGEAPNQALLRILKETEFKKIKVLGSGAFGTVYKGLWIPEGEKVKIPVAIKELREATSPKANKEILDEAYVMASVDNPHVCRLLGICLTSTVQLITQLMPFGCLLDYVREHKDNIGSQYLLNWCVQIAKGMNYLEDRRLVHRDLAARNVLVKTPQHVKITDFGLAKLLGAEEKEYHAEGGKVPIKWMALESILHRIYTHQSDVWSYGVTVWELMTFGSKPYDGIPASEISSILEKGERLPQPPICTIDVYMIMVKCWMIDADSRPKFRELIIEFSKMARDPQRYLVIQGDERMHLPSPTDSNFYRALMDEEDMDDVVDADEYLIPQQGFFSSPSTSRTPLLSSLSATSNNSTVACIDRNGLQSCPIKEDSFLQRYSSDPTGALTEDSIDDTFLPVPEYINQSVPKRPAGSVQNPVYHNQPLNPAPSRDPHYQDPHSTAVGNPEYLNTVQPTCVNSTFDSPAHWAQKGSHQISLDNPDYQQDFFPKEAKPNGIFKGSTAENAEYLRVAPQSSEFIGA

EGFR [6] = target: T3, EGFR; assay: EGFR receptor phosphorylation in A431 cells (immunoblot); format: cell-based; set-up: They also repressed EGF-dependent phosphorylation of EGFR in A431 cells; endogenous in cells; host or cells: A431
Target sequence in this assay (P00533 25-1210): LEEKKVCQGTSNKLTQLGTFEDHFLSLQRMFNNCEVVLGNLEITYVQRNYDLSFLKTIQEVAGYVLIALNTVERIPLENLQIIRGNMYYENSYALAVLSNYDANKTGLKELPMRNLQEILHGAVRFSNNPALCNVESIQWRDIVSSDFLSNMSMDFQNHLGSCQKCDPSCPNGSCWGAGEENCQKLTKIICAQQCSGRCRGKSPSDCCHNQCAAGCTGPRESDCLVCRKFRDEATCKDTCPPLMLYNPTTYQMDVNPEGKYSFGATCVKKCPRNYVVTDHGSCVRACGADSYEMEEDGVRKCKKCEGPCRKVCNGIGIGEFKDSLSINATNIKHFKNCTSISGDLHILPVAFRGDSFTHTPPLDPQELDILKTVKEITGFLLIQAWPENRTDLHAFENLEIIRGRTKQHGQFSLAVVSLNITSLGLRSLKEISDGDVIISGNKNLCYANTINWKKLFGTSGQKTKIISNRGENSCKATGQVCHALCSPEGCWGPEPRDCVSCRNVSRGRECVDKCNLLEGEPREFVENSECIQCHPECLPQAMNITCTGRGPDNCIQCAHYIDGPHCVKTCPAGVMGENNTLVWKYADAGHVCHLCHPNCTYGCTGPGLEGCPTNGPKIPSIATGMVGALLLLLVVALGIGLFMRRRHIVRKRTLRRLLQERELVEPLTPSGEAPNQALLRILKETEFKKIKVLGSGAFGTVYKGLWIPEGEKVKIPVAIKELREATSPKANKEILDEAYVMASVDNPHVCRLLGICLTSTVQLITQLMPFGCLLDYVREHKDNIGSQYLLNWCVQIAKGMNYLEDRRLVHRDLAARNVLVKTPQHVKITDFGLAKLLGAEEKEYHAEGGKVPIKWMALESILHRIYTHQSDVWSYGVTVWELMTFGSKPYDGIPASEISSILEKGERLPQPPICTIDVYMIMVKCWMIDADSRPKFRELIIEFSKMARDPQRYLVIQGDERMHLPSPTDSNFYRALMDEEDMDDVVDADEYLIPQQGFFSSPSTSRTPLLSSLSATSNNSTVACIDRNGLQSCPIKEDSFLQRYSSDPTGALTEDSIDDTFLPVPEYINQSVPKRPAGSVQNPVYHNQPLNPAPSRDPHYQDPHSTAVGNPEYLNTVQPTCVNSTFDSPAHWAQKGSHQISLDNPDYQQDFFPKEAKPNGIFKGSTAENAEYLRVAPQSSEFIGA

T1 sequence (P04626 676-1255 limits assumed): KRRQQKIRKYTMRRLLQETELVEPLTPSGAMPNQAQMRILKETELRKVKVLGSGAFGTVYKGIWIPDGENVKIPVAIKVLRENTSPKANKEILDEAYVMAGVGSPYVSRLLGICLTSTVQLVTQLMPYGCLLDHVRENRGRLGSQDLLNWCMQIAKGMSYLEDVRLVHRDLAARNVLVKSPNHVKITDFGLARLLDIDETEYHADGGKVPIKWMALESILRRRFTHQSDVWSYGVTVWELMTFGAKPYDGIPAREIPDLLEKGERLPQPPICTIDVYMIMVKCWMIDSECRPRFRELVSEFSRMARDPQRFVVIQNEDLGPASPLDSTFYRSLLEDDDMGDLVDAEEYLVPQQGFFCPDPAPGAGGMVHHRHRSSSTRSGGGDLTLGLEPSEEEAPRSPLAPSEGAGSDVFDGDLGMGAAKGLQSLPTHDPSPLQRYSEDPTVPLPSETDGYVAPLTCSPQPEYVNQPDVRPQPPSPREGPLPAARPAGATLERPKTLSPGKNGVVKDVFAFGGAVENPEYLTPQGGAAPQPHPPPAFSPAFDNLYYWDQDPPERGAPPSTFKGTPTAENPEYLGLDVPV
T2 sequence (P04626 23-1255): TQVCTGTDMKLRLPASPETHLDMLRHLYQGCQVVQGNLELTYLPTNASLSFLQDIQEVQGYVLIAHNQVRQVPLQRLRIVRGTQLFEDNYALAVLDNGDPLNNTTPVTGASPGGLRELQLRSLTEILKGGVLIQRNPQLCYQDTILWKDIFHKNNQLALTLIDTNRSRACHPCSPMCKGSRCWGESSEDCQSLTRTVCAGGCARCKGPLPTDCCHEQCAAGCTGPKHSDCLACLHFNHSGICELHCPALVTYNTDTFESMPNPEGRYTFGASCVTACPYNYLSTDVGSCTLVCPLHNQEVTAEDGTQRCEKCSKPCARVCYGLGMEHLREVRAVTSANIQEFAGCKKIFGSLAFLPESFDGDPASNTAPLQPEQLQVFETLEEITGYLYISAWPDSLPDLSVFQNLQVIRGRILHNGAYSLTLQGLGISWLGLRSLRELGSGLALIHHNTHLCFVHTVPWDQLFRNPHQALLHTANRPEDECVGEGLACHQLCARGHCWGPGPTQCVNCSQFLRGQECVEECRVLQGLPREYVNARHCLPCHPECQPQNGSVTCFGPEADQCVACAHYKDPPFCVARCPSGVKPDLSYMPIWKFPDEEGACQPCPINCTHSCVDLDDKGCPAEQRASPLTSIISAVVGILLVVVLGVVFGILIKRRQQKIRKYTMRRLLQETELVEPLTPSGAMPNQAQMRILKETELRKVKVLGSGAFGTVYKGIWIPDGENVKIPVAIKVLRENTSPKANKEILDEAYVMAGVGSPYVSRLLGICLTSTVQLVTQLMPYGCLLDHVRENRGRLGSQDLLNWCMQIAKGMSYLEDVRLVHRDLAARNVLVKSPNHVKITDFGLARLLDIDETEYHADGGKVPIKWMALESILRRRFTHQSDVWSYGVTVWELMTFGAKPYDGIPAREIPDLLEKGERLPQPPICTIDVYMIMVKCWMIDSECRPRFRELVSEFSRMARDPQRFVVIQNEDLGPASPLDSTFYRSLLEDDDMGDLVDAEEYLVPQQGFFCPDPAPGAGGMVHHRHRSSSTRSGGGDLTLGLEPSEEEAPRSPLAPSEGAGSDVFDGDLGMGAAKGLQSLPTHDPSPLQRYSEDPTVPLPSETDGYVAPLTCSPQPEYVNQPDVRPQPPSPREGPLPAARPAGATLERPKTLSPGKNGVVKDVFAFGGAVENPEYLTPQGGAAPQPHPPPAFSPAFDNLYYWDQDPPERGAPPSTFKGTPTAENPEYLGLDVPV

inhibition of the HER-2 enzyme (in words) [1]: potent inhibitors
IC50 ([1]; HER-2 enzyme activity reduced by 50% (IC50), span over the three inhibitors): 33 to 65 nM
Enzyme IC50 HER-2 ([1]; autophosphorylation, ELISA): 0.019 µg/mL
GI50 [2]: 4.01 nM
IC50 (A431 cells): 0.069 µg/mL (≈ 0.12 µM)
IC50 (SK-Br-3 cells): 1.5 ng/mL (≈ 0.00261 µM)
IC50 (BT474 cells): 2.4 ng/mL (≈ 0.00418 µM)
IC50 (MDA-MB-435 cells): 0.51 µg/mL (≈ 0.888 µM)
IC50 (SW620 cells): 0.29 µg/mL (≈ 0.505 µM)
IC50 (Her-2; Her-2 phosphorylation, 3 hours at 37° C., immunoblot, read-out: IC50 receptor phosphorylation BT474 (converted)): 22.6 nM
IC50 (Her-2; ligand-independent receptor phosphorylation decreased by 50% (IC50) in BT474 cells, span over the three compounds): 5 to 23 nM
IC50 (EGFR [5]): 33.1 nM
IC50 receptor phosphorylation A431 (EGFR [6]; EGFR phosphorylation, 3 hours at 37° C., immunoblot): 4.2 ng/mL (≈ 0.00732 µM)
IC50 (EGFR [6]; span over the three compounds, read-out: EGF-dependent phosphorylation of EGFR in A431 cells IC50): 3 to 7 nM
Compound: CCOc1cc2ncc(C#N)c(Nc3ccc(OCc4cccc(F)c4)c(Cl)c3)c2cc1NC(=O)/C=C/CN(C)C [Example 3, (E)-N-(4-{3-chloro-4-[(3-fluorobenzyl)oxy]anilino}-3-cyano-7-ethoxy-6-quinolinyl)-4-(dimethylamino)-2-butenamide]
IC50 (3T3 cells; NIH3T3, 48 h, EGFR −, Her-2 −, 2 days, SRB, read-out: CELL IC50 3T3): 0.52 µg/mL
IC50 (3T3 cells; NIH3T3, span over the three compounds, read-out: IC50 isogenic untransfected cells (3T3)): 683 to 906 nM
tumor growth inhibition, statistically-significant ([3]; 10 mg/kg/day PO, two other independent tests): 21-33%
tumor growth inhibition ([3]; 20 mg/kg/day PO): 65%
tumor growth inhibition ([3]; 40 mg/kg/day PO): 97%
tumor growth inhibition ([3]; 80 mg/kg/day PO): 99%
minimum efficacious dose (MED) ([3]; smallest dose with sustained, statistically-significant (p<0.05) reduction of tumor growth): 10 mg/kg/day
maximum tumor growth inhibition (BT474 xenografts; 10 mg/kg/day PO): 59%
maximum tumor growth inhibition (BT474 xenografts; 40 mg/kg/day PO): 96%
tumor growth inhibition (xenografts of SUM-190): 94%
tumor growth inhibition (xenografts of SK-OV-3; 20 mg/kg/day PO): 86%
tumor growth inhibition (xenografts of SK-OV-3; 60 mg/kg/day PO): 91%
tumor behaviour after treatment was completed (in words) ([4]; after end of treatment): evidence of re-growth
tumor regression (in words) ([4]; during dosing): no decrease in tumor size below the initial size
MED in the HER-2 overexpressing human xenograft models ([4]; mouse, in vivo): 10 mg/kg/day
